Laboratory results taken from PubChem BioAssay (NCI).
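Cultured in 96-well plates, cells were exposed to test compound for 48 hours across five concentrations. TGI marks complete inhibition of growth.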

Tests used:
Experiment in all cases: NCI tumour cell line growth inhibition, 48 h
786-0 renal = system: 786-0 renal
A498 renal = system: A498 renal
A549 NSCLC = system: A549 NSCLC
ACHN renal = system: ACHN renal
CAKI-1 renal = system: CAKI-1 renal
COLO 205 colon = system: COLO 205 colon
DLD-1 colon = system: DLD-1 colon
DMS 114 small cell lung = system: DMS 114 small cell lung
DMS 273 small cell lung = system: DMS 273 small cell lung
EKVX NSCLC = system: EKVX NSCLC
HCC-2998 colon = system: HCC-2998 colon
HCT-116 colon = system: HCT-116 colon
HCT-15 colon = system: HCT-15 colon
HL-60(TB) leukemia = system: HL-60(TB) leukemia
HOP-62 NSCLC = system: HOP-62 NSCLC
HOP-92 NSCLC = system: HOP-92 NSCLC
HT29 colon = system: HT29 colon
IGROV1 ovarian = system: IGROV1 ovarian
K-562 leukemia = system: K-562 leukemia
KM12 colon = system: KM12 colon
KM20L2 colon = system: KM20L2 colon
LOX IMVI melanoma = system: LOX IMVI melanoma
LXFL 529 NSCLC = system: LXFL 529 NSCLC
M14 melanoma = system: M14 melanoma
M19-MEL melanoma = system: M19-MEL melanoma
MALME-3M melanoma = system: MALME-3M melanoma
MOLT-4 leukemia = system: MOLT-4 leukemia
NCI-H226 lung = system: NCI-H226 lung
NCI-H23 lung = system: NCI-H23 lung
NCI-H460 lung = system: NCI-H460 lung
NCI-H522 lung = system: NCI-H522 lung
OVCAR-3 ovarian = system: OVCAR-3 ovarian
OVCAR-4 ovarian = system: OVCAR-4 ovarian
OVCAR-5 ovarian = system: OVCAR-5 ovarian
OVCAR-8 ovarian = system: OVCAR-8 ovarian
RPMI-8226 leukemia = system: RPMI-8226 leukemia
RXF 393 renal = system: RXF 393 renal
RXF-631 renal = system: RXF-631 renal
SF-268 CNS = system: SF-268 CNS
SF-295 CNS = system: SF-295 CNS
SF-539 CNS = system: SF-539 CNS
SK-MEL-2 melanoma = system: SK-MEL-2 melanoma
SK-MEL-28 melanoma = system: SK-MEL-28 melanoma
SK-MEL-5 melanoma = system: SK-MEL-5 melanoma
SK-OV-3 ovarian = system: SK-OV-3 ovarian
SN12C renal = system: SN12C renal
SNB-19 CNS = system: SNB-19 CNS
SNB-75 CNS = system: SNB-75 CNS
SNB-78 CNS = system: SNB-78 CNS
SR leukemia = system: SR leukemia
SW-620 colon = system: SW-620 colon
TK-10 renal = system: TK-10 renal
U251 CNS = system: U251 CNS
UACC-257 melanoma = system: UACC-257 melanoma
UACC-62 melanoma = system: UACC-62 melanoma
UO-31 renal = system: UO-31 renal
XF 498 CNS = system: XF 498 CNS
CCRF-CEM leukemia = system: CCRF-CEM leukemia

## CC1=C/C(=C(\c2ccc(N(C)C)cc2)c2ccc([N+](C)(C)C)cc2)C=CC1=[N+](C)C
786-0 renal
  TGI: 58.2 µM
A498 renal
  TGI: 36.7 µM
A549 NSCLC
  TGI: 28.9 µM
ACHN renal
  TGI: 43.8 µM
CAKI-1 renal
  TGI: 41.1 µM
COLO 205 colon
  TGI: 85.4 µM
DLD-1 colon
  TGI: 45.3 µM
DMS 114 small cell lung
  TGI: 16.1 µM
DMS 273 small cell lung
  TGI: 18.2 µM
EKVX NSCLC
  TGI: 15.8 µM
HCC-2998 colon
  TGI: 48.7 µM
HCT-116 colon
  TGI: 14.3 µM
HCT-15 colon
  TGI: > 100 µM
HL-60(TB) leukemia
  TGI: 5.93 µM
HOP-62 NSCLC
  TGI: 71.5 µM
HOP-92 NSCLC
  TGI: 30.6 µM
HT29 colon
  TGI: 77.9 µM
IGROV1 ovarian
  TGI: 26.6 µM
K-562 leukemia
  TGI: > 100 µM
KM12 colon
  TGI: 16.1 µM
KM20L2 colon
  TGI: 32.8 µM
LOX IMVI melanoma
  TGI: 17.7 µM
LXFL 529 NSCLC
  TGI: 22.1 µM
M14 melanoma
  TGI: 43 µM
M19-MEL melanoma
  TGI: 20.3 µM
MALME-3M melanoma
  TGI: 32.3 µM
MOLT-4 leukemia
  TGI: 28.2 µM
NCI-H226 lung
  TGI: 33.8 µM
NCI-H23 lung
  TGI: 26.6 µM
NCI-H460 lung
  TGI: 22.4 µM
NCI-H522 lung
  TGI: 31.2 µM
OVCAR-3 ovarian
  TGI: 24.4 µM
OVCAR-4 ovarian
  TGI: 32.9 µM
OVCAR-5 ovarian
  TGI: 69 µM
OVCAR-8 ovarian
  TGI: 69.8 µM
RPMI-8226 leukemia
  TGI: 5.44 µM
RXF 393 renal
  TGI: 25.4 µM
RXF-631 renal
  TGI: 21.4 µM
SF-268 CNS
  TGI: 26.3 µM
SF-295 CNS
  TGI: 19.3 µM
SF-539 CNS
  TGI: 34.6 µM
SK-MEL-2 melanoma
  TGI: 35 µM
SK-MEL-28 melanoma
  TGI: 31.4 µM
SK-MEL-5 melanoma
  TGI: 24.5 µM
SK-OV-3 ovarian
  TGI: 31.6 µM
SN12C renal
  TGI: 22.4 µM
SNB-19 CNS
  TGI: 89.4 µM
SNB-75 CNS
  TGI: 10.6 µM
SNB-78 CNS
  TGI: 53.5 µM
SR leukemia
  TGI: 4.75 µM
SW-620 colon
  TGI: 46.3 µM
TK-10 renal
  TGI: 14.9 µM
U251 CNS
  TGI: 17.6 µM
UACC-257 melanoma
  TGI: 27.9 µM
UACC-62 melanoma
  TGI: 19.3 µM
UO-31 renal
  TGI: 78.1 µM
XF 498 CNS
  TGI: 10.1 µM

## O=[N+]([O-])c1ccccc1S(=O)c1ccccc1 (stereo unspecified)
786-0 renal
  TGI: > 100 µM
A498 renal
  TGI: > 100 µM
A549 NSCLC
  TGI: > 100 µM
ACHN renal
  TGI: > 100 µM
CAKI-1 renal
  TGI: > 100 µM
CCRF-CEM leukemia
  TGI: > 100 µM
DLD-1 colon
  TGI: > 100 µM
DMS 114 small cell lung
  TGI: 51.8 µM
DMS 273 small cell lung
  TGI: > 100 µM
HCC-2998 colon
  TGI: > 100 µM
HCT-116 colon
  TGI: > 100 µM
HCT-15 colon
  TGI: > 100 µM
HL-60(TB) leukemia
  TGI: > 100 µM
HOP-62 NSCLC
  TGI: > 100 µM
HOP-92 NSCLC
  TGI: > 100 µM
HT29 colon
  TGI: > 100 µM
IGROV1 ovarian
  TGI: > 100 µM
K-562 leukemia
  TGI: > 100 µM
KM12 colon
  TGI: > 100 µM
LOX IMVI melanoma
  TGI: > 100 µM
LXFL 529 NSCLC
  TGI: > 100 µM
M14 melanoma
  TGI: > 100 µM
M19-MEL melanoma
  TGI: > 100 µM
MALME-3M melanoma
  TGI: > 100 µM
MOLT-4 leukemia
  TGI: > 100 µM
NCI-H226 lung
  TGI: > 100 µM
NCI-H23 lung
  TGI: > 100 µM
NCI-H460 lung
  TGI: > 100 µM
NCI-H522 lung
  TGI: > 100 µM
OVCAR-3 ovarian
  TGI: > 100 µM
OVCAR-4 ovarian
  TGI: > 100 µM
OVCAR-5 ovarian
  TGI: > 100 µM
OVCAR-8 ovarian
  TGI: > 100 µM
RPMI-8226 leukemia
  TGI: > 100 µM
RXF 393 renal
  TGI: > 100 µM
SF-268 CNS
  TGI: > 100 µM
SF-295 CNS
  TGI: > 100 µM
SF-539 CNS
  TGI: > 100 µM
SK-MEL-2 melanoma
  TGI: > 100 µM
SK-MEL-28 melanoma
  TGI: > 100 µM
SK-MEL-5 melanoma
  TGI: > 100 µM
SK-OV-3 ovarian
  TGI: > 100 µM
SN12C renal
  TGI: > 100 µM
SNB-19 CNS
  TGI: > 100 µM
SNB-75 CNS
  TGI: 58.7 µM
SNB-78 CNS
  TGI: > 100 µM
SR leukemia
  TGI: > 100 µM
SW-620 colon
  TGI: > 100 µM
TK-10 renal
  TGI: > 100 µM
U251 CNS
  TGI: > 100 µM
UACC-257 melanoma
  TGI: > 100 µM
UACC-62 melanoma
  TGI: > 100 µM
UO-31 renal
  TGI: > 100 µM
XF 498 CNS
  TGI: > 100 µM
